Results on three molecules are retold here after publication PMC6218659, “Structures of DPAGT1 Explain Glycosylation Disease Mechanisms and Advance TB Antibiotic Design” (Cell, 2018).

One series addresses T1, DPAGT1 (Homo sapiens, UniProt Q9H3H5).
T1 construct: H. sapiens DPAGT1 (1-408, N-terminal 6 x HIS tag, TEV cleavage site); 6xHis purification tag with TEV site (N, cleaved yes); made in house; host or cells: Spodoptera frugiperda Sf9 insect cells (baculovirus)
T1 sequence (Q9H3H5 1-408): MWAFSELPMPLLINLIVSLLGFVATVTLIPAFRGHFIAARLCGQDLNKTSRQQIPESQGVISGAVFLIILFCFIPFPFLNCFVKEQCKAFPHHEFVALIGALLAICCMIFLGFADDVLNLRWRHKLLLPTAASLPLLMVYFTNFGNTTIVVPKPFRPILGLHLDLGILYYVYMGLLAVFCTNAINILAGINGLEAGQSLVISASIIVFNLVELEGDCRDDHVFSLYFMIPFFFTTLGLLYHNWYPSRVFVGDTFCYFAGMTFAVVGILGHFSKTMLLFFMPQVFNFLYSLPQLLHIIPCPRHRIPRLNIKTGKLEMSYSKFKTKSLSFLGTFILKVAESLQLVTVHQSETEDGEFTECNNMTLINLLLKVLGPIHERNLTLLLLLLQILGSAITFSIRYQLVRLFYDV
Briefly: Radiolabeled substrate enzyme activity assay. It counts as biochemical, H. sapiens. The settings on record: WT DPAGT1, non-titrated substrate at 200 μM. On the procedure:
2 μl of 2 μM DPAGT1 WT or mutant proteins in GFB buffer supplemented with 5mM extra MgCl2, 1% OGNG/CHS/cardiolipin and dolichyl monophosphate was combined with 2 μl of UDP-N-acetyl [1-14C] […] The reaction was terminated by the addition of 6 μl of 100% methanol and immediately transferred onto ice. 1 μl of sample was spotted onto a silica coated TLC plate in triplicate and run with a mobile phase consisting of chloroform, methanol, and water at a 65:25:4 ratio respectively. After the run, the TLC plate was dried thoroughly, wrapped in cling film, incubated with a phosphor imaging substrate for 4 days, then phosphor imaged using a Biorad. The pixel density of the spots corresponding to the hydrophobic product was divided by combined pixel density of the product and the substrate and multiplied by the known concentration of substrate added to ascertain the amount of product formed.

In another series the target is T2, DPAGT1 Arg301Cys (Homo sapiens, UniProt Q9H3H5, R301C).
T2 construct: combined with the LIC-adapted primers to amplify the complete DPAGT1 gene, including the desired mutations; 6xHis purification tag with TEV site (N, cleaved yes); made in house; host or cells: Spodoptera frugiperda Sf9 insect cells (baculovirus)
T2 sequence (Q9H3H5 1-408 R301C): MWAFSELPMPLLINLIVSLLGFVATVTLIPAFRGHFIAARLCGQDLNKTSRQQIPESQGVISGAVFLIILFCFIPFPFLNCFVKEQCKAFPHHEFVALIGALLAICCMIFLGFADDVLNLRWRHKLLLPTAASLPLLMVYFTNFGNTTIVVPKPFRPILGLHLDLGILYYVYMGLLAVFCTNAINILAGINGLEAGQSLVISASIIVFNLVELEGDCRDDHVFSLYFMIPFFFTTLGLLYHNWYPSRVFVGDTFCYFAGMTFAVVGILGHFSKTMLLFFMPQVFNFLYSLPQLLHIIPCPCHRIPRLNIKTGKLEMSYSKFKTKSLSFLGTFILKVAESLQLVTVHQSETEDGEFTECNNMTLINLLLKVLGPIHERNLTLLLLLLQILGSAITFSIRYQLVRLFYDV
In words: Thermostability assay (label free differential scanning fluorimetry). It counts as binding, H. sapiens. Conditions: 50 μM compound. On the procedure: (§1) Samples with a volume of 40 μl were prepared containing 0.5 mg/ml protein and 50 μM compound or 5% DMSO in GFB. A glass capillary was dipped into each sample, with the capillary held horizontally to ensure that the capillary was full of the sample. The capillaries were placed on the capillary holder on the Nanotemper Prometheus. Technical triplicates of each sample were prepared, and each experiment was conducted with biological triplicates of each protein. PR.ThermControl software was used to run the experiment and analyse the data. A melting curve from 20 °C – 95 °C at 5 °C/min was performed. The minimum of the first derivative of the 330/350nm ratio was used to determine the Tm1/2.

In a further series the target is T3, DPAGT1 Arg301His (Homo sapiens, UniProt Q9H3H5, R301H).
T3 construct: combined with the LIC-adapted primers to amplify the complete DPAGT1 gene, including the desired mutations; 6xHis purification tag with TEV site (N, cleaved yes); made in house; host or cells: Spodoptera frugiperda Sf9 insect cells (baculovirus)
T3 sequence (Q9H3H5 1-408 R301H): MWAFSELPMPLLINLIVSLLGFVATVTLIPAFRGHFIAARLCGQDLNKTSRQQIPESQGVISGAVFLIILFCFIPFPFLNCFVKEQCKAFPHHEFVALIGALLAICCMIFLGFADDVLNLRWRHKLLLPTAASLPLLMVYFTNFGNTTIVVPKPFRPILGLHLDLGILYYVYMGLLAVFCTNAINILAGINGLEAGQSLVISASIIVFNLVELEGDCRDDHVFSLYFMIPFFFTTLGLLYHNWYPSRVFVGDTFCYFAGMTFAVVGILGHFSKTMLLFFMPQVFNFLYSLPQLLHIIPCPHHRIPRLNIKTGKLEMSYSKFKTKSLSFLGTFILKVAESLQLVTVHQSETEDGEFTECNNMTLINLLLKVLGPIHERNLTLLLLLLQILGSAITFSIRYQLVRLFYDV
Described as above. Conditions: 50 μM compound. The format is binding, H. sapiens. Here is the method:
as §1

The next series has as its target T4, DPAGT1 Leu168Pro (Homo sapiens, UniProt Q9H3H5, L168P).
T4 construct: combined with the LIC-adapted primers to amplify the complete DPAGT1 gene, including the desired mutations; 6xHis purification tag with TEV site (N, cleaved yes); made in house; host or cells: Spodoptera frugiperda Sf9 insect cells (baculovirus)
T4 sequence (Q9H3H5 1-408 L168P): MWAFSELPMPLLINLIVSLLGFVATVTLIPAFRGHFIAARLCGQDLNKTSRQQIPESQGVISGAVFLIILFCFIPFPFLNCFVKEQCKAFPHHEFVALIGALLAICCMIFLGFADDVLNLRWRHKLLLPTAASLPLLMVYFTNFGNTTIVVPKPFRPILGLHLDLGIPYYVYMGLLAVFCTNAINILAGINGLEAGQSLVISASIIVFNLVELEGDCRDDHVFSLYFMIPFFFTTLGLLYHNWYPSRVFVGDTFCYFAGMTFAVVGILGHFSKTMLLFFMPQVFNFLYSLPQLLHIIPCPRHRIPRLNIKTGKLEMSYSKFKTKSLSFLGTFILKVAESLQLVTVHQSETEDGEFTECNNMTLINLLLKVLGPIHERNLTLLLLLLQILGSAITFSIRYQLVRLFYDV
The description is as above. It counts as binding, H. sapiens. Conditions: 50 μM compound. Here is the method:
as §1

For another series, the target named is T5, DPAGT1 Tyr170Cys (Homo sapiens, UniProt Q9H3H5, Y170C).
T5 construct: combined with the LIC-adapted primers to amplify the complete DPAGT1 gene, including the desired mutations; 6xHis purification tag with TEV site (N, cleaved yes); made in house; host or cells: Spodoptera frugiperda Sf9 insect cells (baculovirus)
T5 sequence (Q9H3H5 1-408 Y170C): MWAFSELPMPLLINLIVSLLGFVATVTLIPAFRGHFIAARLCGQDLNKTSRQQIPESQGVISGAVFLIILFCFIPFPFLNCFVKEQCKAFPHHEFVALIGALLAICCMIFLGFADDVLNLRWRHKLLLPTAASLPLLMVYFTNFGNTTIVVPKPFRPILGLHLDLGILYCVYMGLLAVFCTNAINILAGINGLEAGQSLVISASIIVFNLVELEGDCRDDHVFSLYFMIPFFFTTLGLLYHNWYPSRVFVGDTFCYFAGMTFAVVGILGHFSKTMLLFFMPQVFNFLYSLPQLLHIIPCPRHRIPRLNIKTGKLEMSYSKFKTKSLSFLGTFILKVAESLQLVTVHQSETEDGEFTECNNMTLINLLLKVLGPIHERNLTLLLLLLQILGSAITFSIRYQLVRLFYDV
The series is described as above. It counts as binding, H. sapiens. The settings on record: 50 μM compound. Here is the method: as §1

The target in the next series is T6, DPAGT1 Val264Gly (Homo sapiens, UniProt Q9H3H5, V264G).
T6 construct: H. sapiens DPAGT1 (1-408, Val264Gly, N-terminal 6 x HIS tag, TEV cleavage site); 6xHis purification tag with TEV site (N, cleaved yes); made in house; host or cells: Spodoptera frugiperda Sf9 insect cells (baculovirus)
T6 sequence (Q9H3H5 1-408 V264G): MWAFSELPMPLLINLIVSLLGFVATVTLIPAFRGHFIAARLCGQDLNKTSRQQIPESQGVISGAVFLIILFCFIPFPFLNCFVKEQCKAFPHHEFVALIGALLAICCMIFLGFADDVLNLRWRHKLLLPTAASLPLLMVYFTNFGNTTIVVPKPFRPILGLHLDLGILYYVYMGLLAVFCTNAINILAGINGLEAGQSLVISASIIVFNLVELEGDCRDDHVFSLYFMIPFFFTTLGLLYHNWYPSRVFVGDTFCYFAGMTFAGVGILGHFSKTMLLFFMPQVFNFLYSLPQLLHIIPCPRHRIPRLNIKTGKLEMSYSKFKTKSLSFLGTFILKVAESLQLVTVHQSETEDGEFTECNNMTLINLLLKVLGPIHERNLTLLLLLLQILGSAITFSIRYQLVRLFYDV
Described as above. The format is binding, H. sapiens. Conditions: 50 μM compound. Here is the method:
as §1

The target of another series is T7, DPAGT1 WT (Homo sapiens, UniProt Q9H3H5).
T7 construct: H. sapiens DPAGT1 (1-408, N-terminal 6 x HIS tag, TEV cleavage site); 6xHis purification tag with TEV site (N, cleaved yes); made in house; host or cells: Spodoptera frugiperda Sf9 insect cells (baculovirus)
T7 sequence (Q9H3H5 1-408): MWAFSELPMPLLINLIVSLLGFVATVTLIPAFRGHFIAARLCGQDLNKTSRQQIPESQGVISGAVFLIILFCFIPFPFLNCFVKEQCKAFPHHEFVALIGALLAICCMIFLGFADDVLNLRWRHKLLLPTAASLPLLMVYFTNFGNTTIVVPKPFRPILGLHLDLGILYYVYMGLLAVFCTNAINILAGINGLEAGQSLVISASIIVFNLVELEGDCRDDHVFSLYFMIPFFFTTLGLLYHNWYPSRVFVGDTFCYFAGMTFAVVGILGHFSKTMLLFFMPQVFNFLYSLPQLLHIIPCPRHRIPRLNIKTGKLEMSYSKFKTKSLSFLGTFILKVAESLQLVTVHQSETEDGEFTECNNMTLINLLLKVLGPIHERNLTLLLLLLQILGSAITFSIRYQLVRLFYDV
Described as above. Conditions: 50 μM compound. It counts as binding, H. sapiens. Here is the method:
as §1

Series [1] deals with the molecule itself. In words: crystal structure; space group P6(5)22, one DPAGT1 monomer in the asymmetric unit; dimer formed through a crystallographic 2-fold axis; apo WT, apo Val264Gly and Val264Gly complexes with UDP-GlcNAc/Mg2+ or tunicamycin.
Series [2] concerns the molecule itself. In words: native MS; purified DPAGT1 diluted to 10 uM, buffer exchanged into 200 mM ammonium acetate, 0.16% OGNG; Q Exactive modified for high-mass transmission, positive ion mode.

Consider dolichyl phosphate [Dol-P], for which the kcat (usually the maximal rate divided by the concentration of active sites) at DPAGT1 stood at 0.00333 ± 0.0002 s⁻¹. For the same molecule, the Km (commonly the substrate concentration at which the rate is half of its maximum) at DPAGT1 (read-out: apparent Km) came out at 36.3 ± 7.2 µM. Moreover, the “Thermostability (Tm1/2) with added compound” value turned out to be 56.4±0.5 °C at DPAGT1 Arg301Cys; 56.2±1.2 °C on DPAGT1 Arg301His; 52.5±0.3 °C at DPAGT1 Leu168Pro; 54.0±1.0 °C on DPAGT1 Tyr170Cys; 57.2±0.2 °C at DPAGT1 Val264Gly; 58.5 °C on DPAGT1 WT.

B1: H. sapiens DPAGT1 (1-408, Val264Gly, N-terminal 6 x HIS tag, TEV cleavage site) (enzyme, human, UniProt Q9H3H5 1-408, looked up)
chain: MWAFSELPMPLLINLIVSLLGFVATVTLIPAFRGHFIAARLCGQDLNKTSRQQIPESQGVISGAVFLIILFCFIPFPFLNCFVKEQCKAFPHHEFVALIGALLAICCMIFLGFADDVLNLRWRHKLLLPTAASLPLLMVYFTNFGNTTIVVPKPFRPILGLHLDLGILYYVYMGLLAVFCTNAINILAGINGLEAGQSLVISASIIVFNLVELEGDCRDDHVFSLYFMIPFFFTTLGLLYHNWYPSRVFVGDTFCYFAGMTFAGVGILGHFSKTMLLFFMPQVFNFLYSLPQLLHIIPCPRHRIPRLNIKTGKLEMSYSKFKTKSLSFLGTFILKVAESLQLVTVHQSETEDGEFTECNNMTLINLLLKVLGPIHERNLTLLLLLLQILGSAITFSIRYQLVRLFYDV
notes: human DPAGT1, residues 1-408, full length, with the missense variant Val264Gly found in some congenital myasthenic syndrome patients; After TEV cleavage an additional N-terminal serine remains (measured mass 46135 Da); Used for the apo, UDP-GlcNAc and tunicamycin crystal structures; also called Val264Gly DPAGT1; V264G variant; source: Sf9 insect cells (baculovirus), purified (OGNG/CHS extraction, …)
For the molecule B1, the binding result in series [1] was “binds”.

B2: H. sapiens DPAGT1 (1-408, N-terminal 6 x HIS tag, TEV cleavage site), wild type (enzyme, human, UniProt Q9H3H5 1-408, looked up)
chain: MWAFSELPMPLLINLIVSLLGFVATVTLIPAFRGHFIAARLCGQDLNKTSRQQIPESQGVISGAVFLIILFCFIPFPFLNCFVKEQCKAFPHHEFVALIGALLAICCMIFLGFADDVLNLRWRHKLLLPTAASLPLLMVYFTNFGNTTIVVPKPFRPILGLHLDLGILYYVYMGLLAVFCTNAINILAGINGLEAGQSLVISASIIVFNLVELEGDCRDDHVFSLYFMIPFFFTTLGLLYHNWYPSRVFVGDTFCYFAGMTFAVVGILGHFSKTMLLFFMPQVFNFLYSLPQLLHIIPCPRHRIPRLNIKTGKLEMSYSKFKTKSLSFLGTFILKVAESLQLVTVHQSETEDGEFTECNNMTLINLLLKVLGPIHERNLTLLLLLLQILGSAITFSIRYQLVRLFYDV
notes: human dolichyl-phosphate N-acetylglucosamine-phosphotransferase DPAGT1 (E.C. 2.7.8.15), residues 1-408, full-length wild type; After TEV cleavage an additional N-terminal serine remains (measured mass 46177 Da); Integral membrane protein kept in OGNG/CHS/cardiolipin (or DOPG) detergent-lipid buffer; also called WT DPAGT1; GPT; source: Sf9 insect cells (baculovirus), purified (OGNG/CHS extraction, …)
B2: the stoichiometry N (in general, a count of units in the complex or per binding partner) in series [2] came to 2.
